In one data set the test system is Babesia equi. Particulars: horses treated for piroplasmosis; cited from earlier work.
Data set [1] in a line: pH stability of sodium salt of diclazuril (dropwise 1N HCl until cloudy). Format: physicochemical. The protocol:
(§1) The manufacturer of diclazuril, JANSEEN Research Foundation, listed the pKa of diclazuril to be 5.92 in its physico-chemical characteristics of diclazuril. It can be expected that at pH's above the pKa of the compound (i.e. pH>6), aqueous solution of diclazuril would stay in solution. Preliminary studies were conducted to determine the pH at which sodium salt would precipitate.
(§2) Sodium salt of diclazuril was dissolved in water. […] The pH of the aqueous solution was 12.4. To this solution, 1N HCl was added dropwise while stirring and the pH at which the solution began to turn cloudy was recorded.
This will not cause a problem as there are many drugs on the market that are formulated at higher pHs for exactly the same reason.

A further data set is described as follows: in vivo. Set-up: species or system horse. The procedure:
OWENS, (about 1,000 lbs.) received 750 mg of diclazuril powder dissolved in 30 ml of DMSO, intravenously, twice on day one, at zero and zero plus one hours for a total dose of 1,500 mg. Blood samples were drawn at the indicated time points immediately before the next dosing and the solid circles [drawing 4] in FIG. 1 represent plasma concentrations of diclazuril after these administrations. Plasma concentrations of dicalzuril in ng/ml are represented on the vertical axis against time in days on the horizontal axis. […] Concentrations at 72 hr and 96 hr were not included in calculation following IV administration. Area Under the Curve (AUC from 0 to ∞): Intercept-Slope Method [formula] […] Cl=55.26 ml/min. […] ClH=QH. EH EH is lower than 0.3 so diclazuril is found to have low hepatic extraction ratio.

A short description of data set [2]: Repeated daily IV administration of diclazuril in DMSO to the horse DEEP POWDER: plasma levels. Format: in vivo. To be noted: horse 1160 lbs, 0.5 mg/lb (580 mg) in DMSO IV once a day for eight days, sampled 24 hours after each dose, read-out: final steady state plasma concentration of diclazuril. The procedure: The horse, DEEP POWDER, 1160 lbs., in Table 2 above was administered diclazuril at a dose of 0.5 mg/lb. (580 mg) in DMSO IV once a day for eight days. Plasma levels of diclazuril at 24 hours after each dose administration and just before the next day's dosing are represented by the solid circles [drawing 6]
in the above Table 2. Note bow the dose of […] yields a stepwise increasing plasma concentrations of diclazuril, yielding a final steady state plasma concentration of diclazuril of about 10,000 ng/ml.

Data set [3] is classed as physicochemical. The protocol: Diclazuril has a very low solubility in water (<1×10^−7 at pH 6.5) and can in fact be considered as practically-insoluble in water. A presently preferred plasma drug concentration of about 8 μg/ml for about 25-30 days is needed for the effective treatment of equine protozoan myeloencephalitis (EPM). The oral bioavailability of diclazuril is very low. Thus, a parenteral formulation is desired.
as §2

Another data set is described as follows: pKa of diclazuril. Format: physicochemical. Particulars: aqueous solution of the sodium salt of diclazuril; inferred from pH stability study of the sodium salt; read-out: pKa inferred from precipitation pH. The procedure:
as §1, §2

The conditions of data set [4]: listed by JANSEEN Research Foundation; cited from earlier work.

With `O=C(Nc1cccc(C2=NCCN2)c1)Nc1cccc(C2=NCCN2)c1` [imidocarb dipropionate], the “adverse side effects of treatment” value in the data set on Babesia equi is “salivation, restlessness, colic and gastrointestinal tract hypermotility”.
Regarding `N#CC(c1ccc(Cl)cc1)c1c(Cl)cc(-n2ncc(=O)[n-]c2=O)cc1Cl.[Na+]` (stereo not drawn) [sodium salt of diclazuril], the “pH at which the solution began to turn cloudy” value in data set [1] (1N HCl added dropwise while stirring, preliminary study) came out at 10.5. Moreover, in data set [1] (sodium salt dissolved in water), the “pH of the aqueous solution” value was found to be 12.4.
For orientation: AUC means the area under the concentration-time curve, a measure of exposure. For orientation: clearance means a measure of how efficiently the substance is removed, as volume per time. High values mean a high capacity for elimination, low ones a low capacity for elimination. Broadly, the half-life is the time in which the quantity being followed falls by half. By pKa is commonly meant the pH at which an ionisable group is half protonated. Turning to `N#CC(c1ccc(Cl)cc1)c1c(Cl)cc(-n2ncc(=O)[nH]c2=O)cc1Cl` (stereo not drawn) [diclazuril], the “level of diclazuril in urine samples” value in the data set “in vivo” is recorded as “Not detectable”. For the same molecule, the “EH (hepatic extraction ratio)” value in the data set “in vivo” (horse) is reported as “lower than 0.3”. In “in vivo” (horse, iv), the AUC was determined as 452 µg·h/mL, the clearance is 55.3 mL/min and the half-life was roughly 48 h. For the same molecule, the concentration at 24 h in data set [2] was roughly 10000 ng/mL. The “solubility in water (in words)” value in data set [3] is on record as “completely insoluble in water”. Moreover, the pKa in the data set “pKa of diclazuril” was roughly 10.5. In data set [4], the “pKa listed by manufacturer” value is on record as 5.92.

The record behind these values is patent US6465460B1, “Compositions and methods for prevention and treatment of protozoal disease” (New Ace Research Company, priority 1998, dated 2002).
